What was measured:
PI3K delta = PI3K delta (Homo sapiens (Human), UniProt O00329); experiment: Enzymatic PI3K delta isoform inhibition (lipid kinase activity, Kinase-Glo luminescence); type: biochemical; settings: Enzymatic assay
Procedure, shortened: (§1)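 IC50s derive from 4-parameter logistic fits of % inhibition across 8 concentrations (usually 10 to 0.003 μM). Lipid kinase reaction: PI3K (10 nM) plus phosphatidylinositol (5 μg/mL) started with 2 μM ATP, stopped near 50% ATP depletion; leftover ATP quantified by Kinase-Glo luminescence.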

PI3K alpha = PI3K alpha (Homo sapiens (Human), UniProt P42336); experiment: Enzymatic PI3K alpha isoform inhibition (lipid kinase activity, Kinase-Glo luminescence); type: biochemical; settings: Enzymatic assay
Procedure, shortened: as §1

Sequence of PI3K delta (O00329 other isoform, or with tags, fused parts or gaps linker GGGGGG): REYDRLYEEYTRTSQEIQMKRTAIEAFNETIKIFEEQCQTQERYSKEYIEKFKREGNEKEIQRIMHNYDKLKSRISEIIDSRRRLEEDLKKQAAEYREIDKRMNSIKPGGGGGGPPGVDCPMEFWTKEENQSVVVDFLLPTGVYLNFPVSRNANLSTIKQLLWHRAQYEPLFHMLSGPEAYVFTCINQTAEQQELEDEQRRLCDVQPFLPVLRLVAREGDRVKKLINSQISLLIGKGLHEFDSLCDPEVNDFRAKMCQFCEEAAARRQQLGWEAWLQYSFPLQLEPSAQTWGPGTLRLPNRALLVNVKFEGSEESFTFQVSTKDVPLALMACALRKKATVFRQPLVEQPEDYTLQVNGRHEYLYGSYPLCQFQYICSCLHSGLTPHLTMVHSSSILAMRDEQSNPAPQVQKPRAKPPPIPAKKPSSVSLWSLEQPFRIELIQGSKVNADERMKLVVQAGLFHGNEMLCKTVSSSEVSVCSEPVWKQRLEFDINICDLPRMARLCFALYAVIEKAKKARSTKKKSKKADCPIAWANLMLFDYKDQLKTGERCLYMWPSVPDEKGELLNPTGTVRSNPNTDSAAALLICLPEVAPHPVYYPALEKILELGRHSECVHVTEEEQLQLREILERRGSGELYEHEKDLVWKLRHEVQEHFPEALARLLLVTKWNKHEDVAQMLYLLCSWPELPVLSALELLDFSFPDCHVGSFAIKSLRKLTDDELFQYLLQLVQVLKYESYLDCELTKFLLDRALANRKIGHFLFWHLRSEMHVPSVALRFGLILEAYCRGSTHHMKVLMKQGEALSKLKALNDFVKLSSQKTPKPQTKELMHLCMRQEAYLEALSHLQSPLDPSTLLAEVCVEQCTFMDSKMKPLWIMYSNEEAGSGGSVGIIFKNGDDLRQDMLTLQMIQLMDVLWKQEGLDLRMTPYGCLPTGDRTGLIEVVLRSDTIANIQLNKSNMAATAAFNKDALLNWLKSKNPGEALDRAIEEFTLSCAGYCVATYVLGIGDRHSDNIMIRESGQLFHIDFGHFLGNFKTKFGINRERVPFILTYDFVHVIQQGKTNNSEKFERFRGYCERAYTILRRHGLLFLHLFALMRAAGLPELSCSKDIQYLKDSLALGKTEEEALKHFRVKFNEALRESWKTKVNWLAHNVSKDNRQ
Sequence of PI3K alpha (P42336 other isoform, or with tags, fused parts or gaps): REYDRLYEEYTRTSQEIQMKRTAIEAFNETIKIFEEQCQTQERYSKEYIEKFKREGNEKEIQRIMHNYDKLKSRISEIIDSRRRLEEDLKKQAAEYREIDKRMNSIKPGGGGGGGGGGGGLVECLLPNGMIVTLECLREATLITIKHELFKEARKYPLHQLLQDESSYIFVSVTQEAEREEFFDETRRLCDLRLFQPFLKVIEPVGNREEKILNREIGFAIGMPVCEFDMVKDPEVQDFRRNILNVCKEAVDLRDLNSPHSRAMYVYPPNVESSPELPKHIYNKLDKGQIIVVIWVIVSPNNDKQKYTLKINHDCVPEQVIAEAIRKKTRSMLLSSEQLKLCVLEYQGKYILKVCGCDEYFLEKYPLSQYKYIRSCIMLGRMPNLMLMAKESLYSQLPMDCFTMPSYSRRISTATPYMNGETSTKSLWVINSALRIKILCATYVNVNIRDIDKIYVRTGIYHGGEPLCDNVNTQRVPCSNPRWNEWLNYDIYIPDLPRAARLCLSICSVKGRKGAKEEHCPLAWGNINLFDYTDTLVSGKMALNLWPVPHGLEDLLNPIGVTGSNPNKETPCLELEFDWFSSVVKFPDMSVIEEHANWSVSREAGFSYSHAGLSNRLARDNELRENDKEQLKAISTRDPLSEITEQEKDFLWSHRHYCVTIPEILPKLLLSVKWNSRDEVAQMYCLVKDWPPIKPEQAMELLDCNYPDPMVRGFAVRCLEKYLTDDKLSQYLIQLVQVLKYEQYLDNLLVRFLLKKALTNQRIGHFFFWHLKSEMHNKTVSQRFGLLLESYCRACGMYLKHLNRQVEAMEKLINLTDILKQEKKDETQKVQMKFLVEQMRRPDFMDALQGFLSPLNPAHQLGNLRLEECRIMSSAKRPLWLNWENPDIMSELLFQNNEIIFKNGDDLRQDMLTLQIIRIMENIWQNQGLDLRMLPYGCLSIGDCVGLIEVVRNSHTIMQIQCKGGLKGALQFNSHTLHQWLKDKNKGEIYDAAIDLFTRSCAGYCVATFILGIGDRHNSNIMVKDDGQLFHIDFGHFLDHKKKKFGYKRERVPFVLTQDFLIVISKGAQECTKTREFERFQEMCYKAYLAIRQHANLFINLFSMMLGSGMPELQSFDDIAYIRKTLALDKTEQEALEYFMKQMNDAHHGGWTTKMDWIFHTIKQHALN

| Structure (SMILES) | IC50 (PI3K delta) [nM] | IC50 (PI3K alpha) [nM] |
| --- | --- | --- |
| Cc1cc(N2CCOc3ccc(O[C@H]4CCN(C(=O)C5CCS(=O)(=O)CC5)C4)cc32)cnc1OC(F)F [Example B73, {(S)-3-[4-(6-Difluoromethoxy-5-methyl-pyridin-3-yl)-3,4-dihydro-2H-benzo[1,4]oxazin-6-yloxy]-pyrrolidin-1-yl}-(1,1-dioxo-hexahydro-6-thiopyran-4-yl)-methanone] | 30 | 1770 |
| Cn1cnc(C(=O)N2CC[C@H](Oc3ccc4c(c3)N(c3cnc(S(C)(=O)=O)c(C(F)F)c3)CCO4)C2)c1 [Example B74] | 9 | 54 |
| CS(=O)(=O)c1ncc(N2CCOc3ccc(O[C@H]4CCN(C(=O)[C@@H]5CCOC5)C4)cc32)cc1C(F)F [Example B75, {(S)-3-[4-(5-Difluoromethyl-6-methanesulfonyl-pyridin-3-yl)-3,4-dihydro-2H-benzo[1,4]oxazin-6-yloxy]-pyrrolidin-1-yl}-(R)-tetrahydro-furan-3-yl-methanone] | 11 | 211 |
| CS(=O)(=O)c1ncc(N2CCOc3ccc(O[C@H]4CCN(C(=O)[C@H]5CCOC5)C4)cc32)cc1C(F)F [Example B76, {(S)-3-[4-(5-Difluoromethyl-6-methanesulfonyl-pyridin-3-yl)-3,4-dihydro-2H-benzo[1,4]oxazin-6-yloxy]-pyrrolidin-1-yl}-(S)-tetrahydro-furan-3-yl-methanone] | 61 | 399 |
| CNc1cc(N2CCOc3ccc(O[C@H]4CCN(C(=O)C5CCOCC5)C4)cc32)cnc1S(C)(=O)=O [Example B77, {(S)-3-[4-(6-Methanesulfonyl-5-methylamino-pyridin-3-yl)-3,4-dihydro-2H-benzo[1,4]oxazin-6-yloxy]-pyrrolidin-1-yl}-(tetrahydro-pyran-4-yl)-methanone] | 32 | 897 |
| CS(=O)(=O)c1ncc(N2CCOc3ccc(O[C@H]4CCN(C(=O)C5CCOCC5)C4)cc32)cc1Cl [Example B79, {(S)-3-[4-(5-Chloro-6-methanesulfonyl-pyridin-3-yl)-3,4-dihydro-2H-benzo[1,4]oxazin-6-yloxy]-pyrrolidin-1-yl}-(tetrahydro-pyran-4-yl)-methanone] | 3 | 661 |
| Cc1cc(N2CCOc3ccc(O[C@H]4CCN(C(=O)C5CC5)C4)cc32)cnc1S(C)(=O)=O [Example B80, Cyclopropyl-{(S)-3-[4-(6-methanesulfonyl-5-methyl-pyridin-3-yl)-3,4-dihydro-2H-benzo[1,4]oxazin-6-yloxy]-pyrrolidin-1-yl}-methanone] | 4 | 295 |
| Cc1cc(N2CCOc3ccc(O[C@H]4CCN(S(=O)(=O)C5CCOCC5)C4)cc32)cnc1S(C)(=O)=O [Example B81, 4-(6-Methanesulfonyl-5-methyl-pyridin-3-yl)-6-[(S)-1-(tetrahydro-pyran-4-sulfonyl)-pyrrolidin-3-yloxy]-3,4-dihydro-2H-benzo[1,4]oxazine] | 81 | 482 |
| Cc1cc(N2CCOc3ccc(O[C@H]4CCN(S(=O)(=O)C(C)C)C4)cc32)cnc1S(C)(=O)=O [Example B82, 4-(6-Methanesulfonyl-5-methyl-pyridin-3-yl)-6-[(S)-1-(propane-2-sulfonyl)-pyrrolidin-3-yloxy]-3,4-dihydro-2H-benzo[1,4]oxazine] | 66 | 353 |
| Cc1cc(N2CCOc3ccc(O[C@H]4CCN(S(=O)(=O)C5CC5)C4)cc32)cnc1S(C)(=O)=O [Example B83, 6-((S)-1-Cyclopropanesulfonyl-pyrrolidin-3-yloxy)-4-(6-methanesulfonyl-5-methyl-pyridin-3-yl)-3,4-dihydro-2H-benzo[1,4]oxazine] | 29 | 214 |
| CCS(=O)(=O)N1CC[C@H](Oc2ccc3c(c2)N(c2cnc(S(C)(=O)=O)c(C)c2)CCO3)C1 [Example B84, 6-((S)-1-Ethanesulfonyl-pyrrolidin-3-yloxy)-4-(6-methanesulfonyl-5-methyl-pyridin-3-yl)-3,4-dihydro-2H-benzo[1,4]oxazine] | 80 | 346 |
| CS(=O)(=O)c1ncc(N2CCOc3ccc(O[C@H]4CCN(C(=O)C5CCOCC5)C4)cc32)cc1F [Example B86, {(S)-3-[4-(5-Fluoro-6-methanesulfonyl-pyridin-3-yl)-3,4-dihydro-2H-benzo[1,4]oxazin-6-yloxy]-pyrrolidin-1-yl}-(tetrahydro-pyran-4-yl)-methanone] | 61 | 6630 |
| CCS(=O)(=O)c1ccc(N2CCOc3ccc(O[C@H]4CCN(C(=O)C5CCOCC5)C4)cc32)cn1 [Example B87, {(S)-3-[4-(6-Ethanesulfonyl-pyridin-3-yl)-3,4-dihydro-2H-benzo[1,4]oxazin-6-yloxy]-pyrrolidin-1-yl}-(tetrahydro-pyran-4-yl)-methanone] | 29 | 7090 |
| CCC(=O)N1CC[C@H](Oc2ccc3c(c2)N(c2ccc(S(=O)(=O)CC)nc2)CCO3)C1 [Example B96, 1-{(S)-3-[4-(6-Ethanesulfonyl-pyridin-3-yl)-3,4-dihydro-2H-benzo[1,4]oxazin-6-yloxy]-pyrrolidin-1-yl}-propan-1-one] | 118 | > 9100 |

Now from value to compound:

| IC50 (PI3K delta) [nM] | IC50 (PI3K alpha) [nM] | Structure (SMILES) |
| --- | --- | --- |
| 8 | 234 | COc1ncc(N2CCOc3ccc(O[C@H]4CCN(C(=O)c5cncn5C)C4)cc32)cc1C [Example B88, {(S)-3-[4-(6-Methoxy-5-methyl-pyridin-3-yl)-3,4-dihydro-2H-benzo[1,4]oxazin-6-yloxy]-pyrrolidin-1-yl}-(3-methyl-3H-imidazol-4-yl)-methanone] |
| 9 | 133 | COc1ncc(N2CCOc3ccc(O[C@H]4CCN(C(=O)c5cn(C)cn5)C4)cc32)cc1C [Example B89, {(S)-3-[4-(6-Methoxy-5-methyl-pyridin-3-yl)-3,4-dihydro-2H-benzo[1,4]oxazin-6-yloxy]-pyrrolidin-1-yl}-(1-methyl-1H-imidazol-4-yl)-methanone] |
| 11 | 1460 | COc1ncc(N2CCOc3ccc(O[C@H]4CCN(C(=O)C5CCN(C(C)=O)CC5)C4)cc32)cc1C [Example B90, 1-(4-{(S)-3-[4-(6-Methoxy-5-methyl-pyridin-3-yl)-3,4-dihydro-2H-benzo[1,4]oxazin-6-yloxy]-pyrrolidine-1-carbonyl}-piperidin-1-yl)-ethanone] |
| 12 | 353 | COc1ncc(N2CCOc3ccc(O[C@H]4CCN(C(=O)c5cc[nH]c(=O)c5)C4)cc32)cc1C [Example B91, 4-{(S)-3-[4-(6-Methoxy-5-methyl-pyridin-3-yl)-3,4-dihydro-2H-benzo[1,4]oxazin-6-yloxy]-pyrrolidine-1-carbonyl}-1H-pyridin-2-one] |
| 8 | 346 | COc1ncc(N2CCOc3ccc(O[C@H]4CCN(C(=O)c5ccc(=O)[nH]c5)C4)cc32)cc1C [Example B92, 5-{(S)-3-[4-(6-Methoxy-5-methyl-pyridin-3-yl)-3,4-dihydro-2H-benzo[1,4]oxazin-6-yloxy]-pyrrolidine-1-carbonyl}-1H-pyridin-2-one] |
| 4 | 525 | COc1ncc(N2CCOc3ccc(O[C@H]4CCN(C(=O)C5CCS(=O)(=O)CC5)C4)cc32)cc1C [Example B93, (1,1-Dioxo-hexahydro-1lambda*6*-thiopyran-4-yl)-{(S)-3-[4-(6-methoxy-5-methyl-pyridin-3-yl)-3,4-dihydro-2H-benzo[1,4]oxazin-6-yloxy]-pyrrolidin-1-yl}-methanone] |
| 5 | 416 | COc1ncc(N2CCOc3ccc(O[C@H]4CCN(C(=O)C5CCOC5)C4)cc32)cc1C (stereo partly drawn) [Example B94, {(S)-3-[4-(6-Methoxy-5-methyl-pyridin-3-yl)-3,4-dihydro-2H-benzo[1,4]oxazin-6-yloxy]-pyrrolidin-1-yl}-(tetrahydro-furan-3-yl)-methanone] |
| 9 | 438 | COc1ncc(N2CCOc3ccc(O[C@H]4CCN(C(=O)c5ccc(=O)n(C)c5)C4)cc32)cc1C [Example B95, 5-{(S)-3-[4-(6-Methoxy-5-methyl-pyridin-3-yl)-3,4-dihydro-2H-benzo[1,4]oxazin-6-yloxy]-pyrrolidine-1-carbonyl}-1-methyl-1H-pyridin-2-one] |
| 21.5 | 476 | CCC(=O)N1CC[C@H](Oc2ccc3c(c2)N(c2cnc(S(C)(=O)=O)c(C)c2)CCO3)C1 [Example B97, 1-{(S)-3-[4-(6-Methanesulfonyl-5-methyl-pyridin-3-yl)-3,4-dihydro-2H-benzo[1,4]oxazin-6-yloxy]-pyrrolidin-1-yl}-propan-1-one] |
| 13 | 910 | COc1ncc(N2CCOc3ccc(O[C@H]4CCN(C(=O)C5CCOC5)C4)cc32)cc1F (stereo partly drawn) [Example B98, {(S)-3-[4-(5-Fluoro-6-methoxy-pyridin-3-yl)-3,4-dihydro-2H-benzo[1,4]oxazin-6-yloxy]-pyrrolidin-1-yl}-(tetrahydro-furan-3-yl)-methanone] |
| 57 | 302 | COCC(=O)N1CC[C@H](Oc2ccc3c(c2)N(c2cnc(OC)c(F)c2)CCO3)C1 [Example B99, 1-{(S)-3-[4-(5-Fluoro-6-methoxy-pyridin-3-yl)-3,4-dihydro-2H-benzo[1,4]oxazin-6-yloxy]-pyrrolidin-1-yl}-2-methoxy-ethanone] |
| 14 | 567 | COc1ncc(N2CCOc3ccc(O[C@H]4CCN(C(=O)c5cocn5)C4)cc32)cc1F [Example B100, {(S)-3-[4-(5-Fluoro-6-methoxy-pyridin-3-yl)-3,4-dihydro-2H-benzo[1,4]oxazin-6-yloxy]-pyrrolidin-1-yl}-oxazol-4-yl-methanone] |
| 15 | 471 | COc1ncc(N2CCOc3ccc(O[C@H]4CCN(C(=O)C5CCS(=O)(=O)C5)C4)cc32)cc1F (stereo partly drawn) [Example B101, (1,1-Dioxo-tetrahydro-1lambda*6*-thiophen-3-yl)-{(S)-3-[4-(5-fluoro-6-methoxy-pyridin-3-yl)-3,4-dihydro-2H-benzo[1,4]oxazin-6-yloxy]-pyrrolidin-1-yl}-methanone] |

— patent publication US9539260B2, “Dihydro-benzo-oxazine and dihydro-pyrido-oxazine derivatives” (Novartis AG, priority 2012, dated 2017)
